“Also recorded” adds a separate entry of the source.
Columns and labels:
wtSOD1 [1] = biological target: T1, wtSOD1 (Homo sapiens, UniProt P00441); experiment: Cross-linking and western blots (SDS-PAGE) of SOD1; assay type: biochemical; settings: for SOD1 dimer formation by cross-linking (western blot): 1:1 or 1:3 molar ratio SOD1 to cross-linker, 1 hour, room temperature
T1 construct: purchased Sigma-Aldrich (St. Louis, Mo.)

G85R SOD1 [2] = biological target: T2, G85R SOD1 (Homo sapiens, UniProt P00441, G86R); experiment: Peptide sequencing using LC-FTMS (bottom-up analysis, site of cross-linking); assay type: binding; settings: 1:1 molar ratio, Glu-C digest
T2 construct: made in house; host or cells: S. cerevisiae EGy118ΔSOD1, vector YEp-351

G93A SOD1 [3] = biological target: T3, G93A SOD1 (Homo sapiens, UniProt P00441, G94A); experiment: LC-FTMS of cross-linked SOD1 (stoichiometry of cross-linker binding); settings: 1:1 molar ratio
T3 construct: made in house; host or cells: S. cerevisiae EGy118ΔSOD1, vector YEp-351
Description: G93A was cross-linked using DMTE or BMOE as previously described at a 1:1 molar ratio (5 μM:5 μM). After one hour, 3% acetonitrile and 1% formic acid was added to the sample and spun at 14,000 RPM for 10 minutes to pellet any precipitated protein. The cross-linked sample was placed in an autosampler and 1 μL of cross-linked sample was aspirated into either a Proxeon 1D HPLC or Eksigent 2D HPLC with the following gradient: 3-50% B for 30 minutes, 50-95% B for 7 minutes, 95% B for 5 minutes, 95-3% B for 1 minute, and 3% B for 15 minutes. Buffer A is HPLC water with 0.1% formic acid and buffer B is 100% acetonitrile, 0.1% formic acid. After liquid chromatography, the sample was ionized using nanospray ionization and analyzed using a […] Bruker Daltonics FTMS. The FTMS was controlled using Apex control software and source parameters were controlled using the Apollo II software. Spectra (monomeric and dimeric G93A) were collected using a skimmer 1 voltage of 35-40V, whereas funnel skimmer dissociation was used to fragment the cross-linked G93A by increasing skimmer one voltage 140 volts. LC-FTMS data of cross-linked and non-cross-linked G93A were analyzed using Data Analysis software (Bruker Daltonics). These experiments were repeated in triplicate. […]

G93A SOD1 [4] = biological target: T3, G93A SOD1; experiment: SOD1 activity assay (NBT gel based); assay type: biochemical; settings: ~42 μM SOD1, 80 μM copper and zinc and/or 42 μM cross-linker
Description: (§1) The DTME cross-linked samples were divided in half, where one half was incubated with 10 mM TCEP and one was not, then analyzed on a 12.5% polyacrylamide gel. The gel was stained using a solution containing 50 mM potassium phosphate, pH 7.8, 1 tablet NBT (10 mg/tablet), and 0.1 mg/mL riboflavin for 45 minutes in the dark. After the 45 minute incubation 1 μL/mL TEMED was added and the gel was exposed to light for 2 minutes. Superoxide radicals create insoluble blue formazon from NBT. SOD1 acitivity is seen as a colorless band since SOD1 scavenges the superoxide, thus inhibiting the blue color formation. Repeated in triplicate.

G85R SOD1 [5] = biological target: T2, G85R SOD1; experiment: SOD1 activity assay (NBT gel based); assay type: biochemical; settings: ~42 μM G85R; for SOD1 activity on addition of the substance: excess copper, zinc or cross-linker
Description: as §1

wtSOD1 [6] = biological target: T1, wtSOD1; experiment: SOD1 activity assay (NBT gel based); assay type: biochemical; settings: ~42 μM SOD1, 80 μM copper and zinc and/or 42 μM cross-linker
Description: as §1

human = settings: LD50 values in human; cited from earlier work
G85R SOD1 [7] = biological target: T2, G85R SOD1; experiment: Thermofluorescence stability assay (SYPRO Orange); assay type: binding; settings: 10 μM G85R, 20 μM copper, 20 μM zinc
G93A SOD1 [8] = biological target: T3, G93A SOD1; experiment: Thermofluorescence stability assay (SYPRO Orange); assay type: binding; settings: 10 μM G93A, 20 μM copper, 20 μM zinc
wtSOD1 [9] = biological target: T1, wtSOD1; experiment: MALDI-TOF MS of cross-linked SOD1; assay type: biochemical; settings: 1:1 molar ratio

T1 sequence (P00441 2-154 limits assumed): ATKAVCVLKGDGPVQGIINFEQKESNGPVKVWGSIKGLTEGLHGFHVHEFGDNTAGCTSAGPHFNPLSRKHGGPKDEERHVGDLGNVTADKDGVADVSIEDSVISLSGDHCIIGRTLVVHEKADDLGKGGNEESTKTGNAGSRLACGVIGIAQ
T3 sequence (P00441 2-154 G94A limits assumed): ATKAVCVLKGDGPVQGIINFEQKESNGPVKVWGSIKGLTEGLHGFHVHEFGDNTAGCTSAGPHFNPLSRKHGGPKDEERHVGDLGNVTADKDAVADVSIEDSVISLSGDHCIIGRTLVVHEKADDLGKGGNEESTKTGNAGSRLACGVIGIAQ
T2 sequence (P00441 2-154 G86R limits assumed): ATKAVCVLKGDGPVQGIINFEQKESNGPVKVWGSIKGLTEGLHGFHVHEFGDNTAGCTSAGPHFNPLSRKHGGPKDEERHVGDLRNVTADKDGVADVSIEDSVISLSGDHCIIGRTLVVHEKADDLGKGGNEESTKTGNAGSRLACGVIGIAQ

C=CS(=O)(=O)CCCCCCS(=O)(=O)C=C [HBVS, 1,6-Hexanol-bis-vinylsulfone]
SOD1 dimer formation by cross-linking (western blot) (wtSOD1 [1]): did not result in formation of dimeric SOD1; also recorded: did not appear to cross-link SOD1

O=C1C=CC(=O)N1CCN1C(=O)C=CC1=O [BMOE, bis(maleimido)ethane]
cross-reactivity with other SOD1 cysteine residues Cys6, Cys57 and Cys146 (G85R SOD1 [2]): relatively low
site of cross-linking (G85R SOD1 [2]): mainly through Cys111
stoichiometry of cross-linker binding (G93A SOD1 [3]): consistent with the molecular weight of G93A plus one cross-linker
SOD1 activity on addition of the substance (G93A SOD1 [4]): unaffected
SOD1 activity on addition of the substance (G85R SOD1 [5]): increases
SOD1 activity on addition of the substance (wtSOD1 [6]): unchanged

O=C(CI)NCCNC(=O)CI [N,N′-ethylenebis-(iodoacetamide)]
LD50 (human): 9 mg/kg

NNc1ccccc1 [phenylhydrazine]
LD50 (human): 80 mg/kg

copper and zinc
SOD1 activity on addition of the substance (G93A SOD1 [4]): unaffected
SOD1 activity on addition of the substance (G85R SOD1 [5]): increases
SOD1 activity on addition of the substance (wtSOD1 [6]; zinc): unaffected; also recorded: unchanged
stabilization by excess copper and zinc alone (G85R SOD1 [7]): ~20 °C
effect of excess copper and zinc on stability (G93A SOD1 [8]): no affect; also recorded: little effect

O=C1C=CC(=O)N1CCOCCOCCN1C(=O)C=CC1=O [BM(PEG)2, 1,8-bis-Maleimidodiethyleneglycol]
SOD1 dimer formation by cross-linking (western blot) (wtSOD1 [1]): resulted in the stabilization of SOD1 dimer

O=C1C=CC(=O)N1CC(O)C(O)CN1C(=O)C=CC1=O (stereo not shown) [BMDB, 1,4-bismaleimidyl-2,3-dihydroxybutane]
SOD1 dimer formation by cross-linking (western blot) (wtSOD1 [1]): resulted in the stabilization of SOD1 dimer

O=C1C=CC(=O)N1CCSSCCN1C(=O)C=CC1=O [DTME, Dithio-bismaleimidoethane]
state of cross-linked SOD1 dimer in presence of reducing agent (DTT) (wtSOD1 [1]; 1:1 molar ratio, SDS PAGE with reducing agent): only monomer was observed; also recorded: returning the dimer to its monomeric form; also recorded: became a monomer in the presence of reducing agent
SOD1 dimer formation by cross-linking (western blot) (wtSOD1 [1]): resulted in the stabilization of SOD1 dimer; also recorded: resulted in dimeric SOD1
dimer observed in MALDI-TOF spectra of cross-linked SOD1 (wtSOD1 [9]): The majority of the species observed is dimeric wtSOD1
stoichiometry of cross-linker binding (G93A SOD1 [3]): one equivalent of cross-linker produced one equivalent of dimer; also recorded: consistent with the molecular weight of G93A plus one cross-linker
SOD1 activity in the presence of copper, zinc and cross-linker (G85R SOD1 [5]; 80 μM copper and zinc and 42 μM cross-linker): even larger increase in activity; also recorded: largest increase in activity
SOD1 activity on addition of the substance (G85R SOD1 [5]): increases

O=C1C=CC(=O)N1CCN(CCN1C(=O)C=CC1=O)CCN1C(=O)C=CC1=O [TMEA, Tris[2-maleimidoethyl]-amione]
relative cross-linking efficiency (western blot) (wtSOD1 [1]; 1:1 or 1:3 cross-linker to protein): most efficient cross-linker
SOD1 dimer formation by cross-linking (western blot) (wtSOD1 [1]): resulted in the stabilization of SOD1 dimer

O=C1C=CC(=O)N1CCCCN1C(=O)C=CC1=O [BMB, 1,4bismaleimidobutane]
SOD1 dimer formation by cross-linking (western blot) (wtSOD1 [1]): resulted in the stabilization of SOD1 dimer

Reference: patent US20120134978A1, “Cross-Linking of Superoxide Dismutase Monomers” (Brandeis University, priority 2009, published 2012)
